Data from ChEMBL document CHEMBL5532657, “Serendipitous discovery of Class I HDAC inhibitors from rational design of molecular glue degraders targeting HDAC” (Eur J Med Chem, 2024).
The source made the active and inactive calls. The calls are words filed in the database; no cut-off is given here.

Tests used:
K562 = experiment: Antiproliferative activity against human K562 cells assessed as cell growth inhibition at 5 uM incubated for 48 hrs by CCK-8 assay; format: functional, cell-based
RPMI-8226 = experiment: Antiproliferative activity against human RPMI-8226 cells assessed as cell growth inhibition incubated for 48 hrs by CCK-8 assay; format: functional, cell-based; settings: RPMI-8226, 48 h
Histone deacetylase 11 = molecular target: T1, Histone deacetylase 11 (Homo sapiens, UniProt Q96DB2); experiment: Inhibition of HDAC11 in human HeLa cells nuclear extract using BocLys(acetyl)-AMC as substrate incubated for 1 hr by fluorescence plate reader analysis; format: subcellular, Nucleus
T1 sequence (Q96DB2 whole entry): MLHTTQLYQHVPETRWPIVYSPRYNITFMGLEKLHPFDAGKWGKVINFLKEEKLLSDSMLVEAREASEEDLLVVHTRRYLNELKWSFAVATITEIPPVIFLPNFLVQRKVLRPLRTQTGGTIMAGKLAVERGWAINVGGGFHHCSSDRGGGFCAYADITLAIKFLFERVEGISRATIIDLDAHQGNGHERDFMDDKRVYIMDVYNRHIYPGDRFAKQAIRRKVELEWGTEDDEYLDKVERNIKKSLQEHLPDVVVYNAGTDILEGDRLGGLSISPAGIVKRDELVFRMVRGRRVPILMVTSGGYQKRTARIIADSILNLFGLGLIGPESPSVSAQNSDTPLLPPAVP

A549 = experiment: Antiproliferative activity against human A549 cells assessed as cell growth inhibition at 5 uM incubated for 48 hrs by CCK-8 assay; format: functional, cell-based
HeLa = experiment: Antiproliferative activity against human HeLa cells assessed as cell growth inhibition at 5 uM incubated for 48 hrs by CCK-8 assay; format: functional, cell-based
[1] = molecular target: Histone deacetylase (Homo sapiens) (UniProt Q13547+O15379+Q9UBN7+Q92769+Q9UQL6+Q8WUI4+Q9BY41+Q96DB2+P56524+Q9UKV0+Q969S8); experiment: Inhibition of HDAC in human RS4-11 cells assessed as upregulation of histone H3 acetylation at 1 to 10 uM by Western blot assay; format: cell-based; settings: dose 1-10 µM
Histone deacetylase 7 = molecular target: T2, Histone deacetylase 7 (Homo sapiens, UniProt Q8WUI4); experiment: Inhibition of HDAC7 in human HeLa cells nuclear extract using BocLys(acetyl)-AMC as substrate incubated for 1 hr by fluorescence plate reader analysis; format: subcellular, Nucleus
T2 sequence (Q8WUI4 whole entry): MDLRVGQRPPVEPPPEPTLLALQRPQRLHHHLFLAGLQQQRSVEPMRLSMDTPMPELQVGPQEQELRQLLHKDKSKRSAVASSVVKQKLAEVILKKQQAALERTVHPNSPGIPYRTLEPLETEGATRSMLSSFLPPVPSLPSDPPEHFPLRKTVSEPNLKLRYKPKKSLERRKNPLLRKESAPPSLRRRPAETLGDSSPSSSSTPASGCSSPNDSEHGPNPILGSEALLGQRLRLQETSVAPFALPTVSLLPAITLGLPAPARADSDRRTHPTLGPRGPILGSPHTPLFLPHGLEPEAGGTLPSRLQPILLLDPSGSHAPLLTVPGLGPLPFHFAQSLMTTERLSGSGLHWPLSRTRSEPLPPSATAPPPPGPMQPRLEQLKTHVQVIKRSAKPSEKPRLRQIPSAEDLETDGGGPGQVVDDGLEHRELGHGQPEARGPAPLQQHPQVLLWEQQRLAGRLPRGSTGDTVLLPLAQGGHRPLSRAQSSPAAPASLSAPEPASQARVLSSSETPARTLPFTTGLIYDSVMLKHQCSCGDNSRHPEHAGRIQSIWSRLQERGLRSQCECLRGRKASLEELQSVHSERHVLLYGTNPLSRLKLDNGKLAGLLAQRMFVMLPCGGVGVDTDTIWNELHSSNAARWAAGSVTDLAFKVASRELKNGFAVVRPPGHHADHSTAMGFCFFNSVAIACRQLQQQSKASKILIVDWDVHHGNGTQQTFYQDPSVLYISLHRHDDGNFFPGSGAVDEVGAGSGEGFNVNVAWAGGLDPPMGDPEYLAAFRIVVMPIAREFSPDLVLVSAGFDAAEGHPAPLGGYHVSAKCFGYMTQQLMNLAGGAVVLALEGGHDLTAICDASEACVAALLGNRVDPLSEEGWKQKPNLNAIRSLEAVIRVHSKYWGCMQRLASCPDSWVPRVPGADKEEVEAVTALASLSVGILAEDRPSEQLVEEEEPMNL

HCT-116 = experiment: Antiproliferative activity against human HCT-116 cells assessed as cell growth inhibition at 5 uM incubated for 48 hrs by CCK-8 assay; format: functional, cell-based
RS4-11 [2] = experiment: Antiproliferative activity against human RS4-11 cells assessed as cell growth inhibition incubated for 48 hrs by CCK-8 assay; format: functional, cell-based; settings: RS4-11, 48 h
RS4-11 [3] = experiment: Induction of apoptosis in human RS4-11 cells assessed as upregulation of Bax level; format: functional, cell-based; settings: dose 1-10 µM
Histone deacetylase 1 = Histone deacetylase 1 (Homo sapiens, UniProt Q13547); experiment: Binding affinity to HDAC1 (unknown origin)
Sequence of Histone deacetylase 1 (Q13547 whole entry): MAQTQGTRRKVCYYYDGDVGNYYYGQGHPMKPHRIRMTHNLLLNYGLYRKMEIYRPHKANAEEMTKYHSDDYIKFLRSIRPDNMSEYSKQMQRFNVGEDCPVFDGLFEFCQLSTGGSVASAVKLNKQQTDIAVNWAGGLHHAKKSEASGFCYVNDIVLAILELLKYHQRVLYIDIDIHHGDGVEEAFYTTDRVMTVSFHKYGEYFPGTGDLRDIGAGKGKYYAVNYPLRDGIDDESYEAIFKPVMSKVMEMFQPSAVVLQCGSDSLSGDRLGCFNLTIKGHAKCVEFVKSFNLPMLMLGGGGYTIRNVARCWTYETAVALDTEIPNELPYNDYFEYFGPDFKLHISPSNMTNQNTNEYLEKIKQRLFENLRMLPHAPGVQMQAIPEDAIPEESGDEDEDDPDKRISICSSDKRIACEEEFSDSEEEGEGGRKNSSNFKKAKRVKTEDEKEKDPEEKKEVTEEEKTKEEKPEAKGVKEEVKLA

RS4-11 [4] = experiment: Antiproliferative activity against human RS4-11 cells assessed as cell growth inhibition at 5 uM incubated for 48 hrs by CCK-8 assay; format: functional, cell-based
RS4-11 [5] = experiment: Induction of apoptosis in human RS4-11 cells assessed as upregulation of p21 at 1 to 10 uM; format: functional, cell-based; settings: dose 1-10 µM

IC50 (RPMI-8226) | IC50 (Histone deacetylase 11) | Activity [1] | IC50 (Histone deacetylase 7) | IC50 (RS4-11 [2]) | Kd (Histone deacetylase 1) | Structure (SMILES) | Activity (K562) | Activity (A549) | Activity (HeLa) | Activity (HCT-116) | Activity (RS4-11 [3]) | Activity (RS4-11 [4]) | Activity (RS4-11 [5])
5.75 µM | > 2 µM | Active | > 2 µM | 1.57 µM | 41.3 µM | Nc1ccccc1NC(=O)c1ccc(CNc2cccc3c2C(=O)N(C2CCC(=O)NC2=O)C3=O)cc1 (stereo unspecified) | Active | inactive | inactive | inactive | Dose-Dependent Effect | Active | Active
3.72 µM | > 2 µM | Active | > 2 µM | 2.11 µM | 16.7 µM | Nc1cc(F)ccc1NC(=O)c1ccc(CNc2cccc3c2C(=O)N(C2CCC(=O)NC2=O)C3=O)cc1 (stereo unspecified) | Active | inactive | inactive | inactive | Dose-Dependent Effect | Active | Active
